Data as given in patent US20240415914A1, “Water Dispersible Cannabinoid Compositions” (priority 2021, published 2024).
Where two headings read alike, the source gives them in different places.

Assays:
[1] = Stability of cannabinoid and Vitamin E components of Beverage 2 (AB Red) stored at 8° C. and 21-25° C., LCMSMS over 570 days
Procedure: The LCMSMS was calibrated for 0-50 ng/ml cannabinoids with the same resin material used in the preparation of the concentrates. At each time period, 100 μml of beverage was diluted with 10 ml of methanol and injected into the LCMSMS for analysis.

[2] = type: physicochemical; settings: stored at room temperature (21-25° C.)
Procedure: At each time period, 0.05 g of powder was dissolved in 10 ml-15 of ethanol, diluted to fall within the analytical range, and injected into the LCMSMS for analysis.

CCCCCc1cc(O)c(C/C=C(\C)CCC=C(C)C)c(O)c1 [CBG, cannabigerol]
Stability of Cannabinoids in AB Red ([1]; 8° C., 0 days): 4.75 µg/mL
Stability of Cannabinoids in AB Red ([1]; 8° C., 1 days): 4.62 µg/mL
Stability of Cannabinoids in AB Red ([1]; 8° C., 2 days): 4.79 µg/mL
Stability of Cannabinoids in AB Red ([1]; 8° C., 3 days): 4.70 µg/mL
Stability of Cannabinoids in AB Red ([1]; 8° C., 5 days): 4.75 µg/mL
Stability of Cannabinoids in AB Red ([1]; 8° C., 8 days): 4.76 µg/mL
Stability of Cannabinoids in AB Red ([1]; 8° C., 9 days): 4.72 µg/mL
Stability of Cannabinoids in AB Red ([1]; 8° C., 10 days): 4.68 µg/mL
Stability of Cannabinoids in AB Red ([1]; 8° C., 11 days): 4.77 µg/mL
Stability of Cannabinoids in AB Red ([1]; 8° C., 12 days): 4.64 µg/mL
Stability of Cannabinoids in AB Red ([1]; 8° C., 15 days): 4.68 µg/mL
Stability of Cannabinoids in AB Red ([1]; 8° C., 16 days): 4.65 µg/mL
Stability of Cannabinoids in AB Red ([1]; 8° C., 17 days): 4.77 µg/mL
Stability of Cannabinoids in AB Red ([1]; 8° C., 18 days): 4.67 µg/mL
Stability of Cannabinoids in AB Red ([1]; 8° C., 19 days): 4.71 µg/mL
Stability of Cannabinoids in AB Red ([1]; 8° C., 22 days): 4.70 µg/mL
Stability of Cannabinoids in AB Red ([1]; 8° C., 23 days): 4.66 µg/mL
Stability of Cannabinoids in AB Red ([1]; 8° C., 24 days): 4.65 µg/mL
Stability of Cannabinoids in AB Red ([1]; 8° C., 25 days): 4.73 µg/mL
Stability of Cannabinoids in AB Red ([1]; 8° C., 26 days): 4.68 µg/mL
Stability of Cannabinoids in AB Red ([1]; 8° C., 29 days): 4.80 µg/mL
Stability of Cannabinoids in AB Red ([1]; 8° C., 30 days): 4.72 µg/mL
Stability of Cannabinoids in AB Red ([1]; 8° C., 60 days): 4.70 µg/mL
Stability of Cannabinoids in AB Red ([1]; 8° C., 90 days): 4.73 µg/mL
Stability of Cannabinoids in AB Red ([1]; 8° C., 120 days): 4.68 µg/mL
Stability of Cannabinoids in AB Red ([1]; 8° C., 150 days): 4.67 µg/mL
Stability of Cannabinoids in AB Red ([1]; 8° C., 180 days): 4.65 µg/mL
Stability of Cannabinoids in AB Red ([1]; 8° C., 210 days): 4.60 µg/mL
Stability of Cannabinoids in AB Red ([1]; 8° C., 240 days): 4.68 µg/mL
Stability of Cannabinoids in AB Red ([1]; 8° C., 270 days): 4.66 µg/mL
Stability of Cannabinoids in AB Red ([1]; 8° C., 300 days): 4.70 µg/mL
Stability of Cannabinoids in AB Red ([1]; 8° C., 330 days): 4.60 µg/mL
Stability of Cannabinoids in AB Red ([1]; 8° C., 390 days): 4.55 µg/mL
Stability of Cannabinoids in AB Red ([1]; 8° C., 420 days): 4.58 µg/mL
Stability of Cannabinoids in AB Red ([1]; 8° C., 450 days): 4.54 µg/mL
Stability of Cannabinoids in AB Red ([1]; 8° C., 480 days): 4.51 µg/mL
Stability of Cannabinoids in AB Red ([1]; 8° C., 510 days): 4.40 µg/mL
Stability of Cannabinoids in AB Red ([1]; 8° C., 540 days): 4.42 µg/mL
Stability of Cannabinoids in AB Red ([1]; 8° C., 570 days): 4.37 µg/mL
Stability of Cannabinoids in AB Red ([1]; 21-25° C., 0 days): 4.75 µg/mL
Stability of Cannabinoids in AB Red ([1]; 21-25° C., 1 days): 4.57 µg/mL
Stability of Cannabinoids in AB Red ([1]; 21-25° C., 2 days): 4.61 µg/mL
Stability of Cannabinoids in AB Red ([1]; 21-25° C., 3 days): 4.71 µg/mL
Stability of Cannabinoids in AB Red ([1]; 21-25° C., 5 days): 4.66 µg/mL
Stability of Cannabinoids in AB Red ([1]; 21-25° C., 8 days): 4.66 µg/mL
Stability of Cannabinoids in AB Red ([1]; 21-25° C., 9 days): 4.74 µg/mL
Stability of Cannabinoids in AB Red ([1]; 21-25° C., 10 days): 4.59 µg/mL
Stability of Cannabinoids in AB Red ([1]; 21-25° C., 11 days): 4.72 µg/mL
Stability of Cannabinoids in AB Red ([1]; 21-25° C., 12 days): 4.62 µg/mL
Stability of Cannabinoids in AB Red ([1]; 21-25° C., 15 days): 4.80 µg/mL
Stability of Cannabinoids in AB Red ([1]; 21-25° C., 16 days): 4.75 µg/mL
Stability of Cannabinoids in AB Red ([1]; 21-25° C., 17 days): 4.63 µg/mL
Stability of Cannabinoids in AB Red ([1]; 21-25° C., 18 days): 4.70 µg/mL
Stability of Cannabinoids in AB Red ([1]; 21-25° C., 19 days): 4.66 µg/mL
Stability of Cannabinoids in AB Red ([1]; 21-25° C., 22 days): 4.71 µg/mL
Stability of Cannabinoids in AB Red ([1]; 21-25° C., 23 days): 4.67 µg/mL
Stability of Cannabinoids in AB Red ([1]; 21-25° C., 24 days): 4.78 µg/mL
Stability of Cannabinoids in AB Red ([1]; 21-25° C., 25 days): 4.56 µg/mL
Stability of Cannabinoids in AB Red ([1]; 21-25° C., 26 days): 4.77 µg/mL
Stability of Cannabinoids in AB Red ([1]; 21-25° C., 29 days): 4.78 µg/mL
Stability of Cannabinoids in AB Red ([1]; 21-25° C., 30 days): 4.73 µg/mL
Stability of Cannabinoids in AB Red ([1]; 21-25° C., 60 days): 4.61 µg/mL
Stability of Cannabinoids in AB Red ([1]; 21-25° C., 90 days): 4.55 µg/mL
Stability of Cannabinoids in AB Red ([1]; 21-25° C., 120 days): 4.61 µg/mL
Stability of Cannabinoids in AB Red ([1]; 21-25° C., 150 days): 4.65 µg/mL
Stability of Cannabinoids in AB Red ([1]; 21-25° C., 180 days): 4.53 µg/mL
Stability of Cannabinoids in AB Red ([1]; 21-25° C., 210 days): 4.63 µg/mL
Stability of Cannabinoids in AB Red ([1]; 21-25° C., 240 days): 4.56 µg/mL
Stability of Cannabinoids in AB Red ([1]; 21-25° C., 270 days): 4.68 µg/mL
Stability of Cannabinoids in AB Red ([1]; 21-25° C., 300 days): 4.47 µg/mL
Stability of Cannabinoids in AB Red ([1]; 21-25° C., 330 days): 4.57 µg/mL
Stability of Cannabinoids in AB Red ([1]; 21-25° C., 390 days): 4.57 µg/mL
Stability of Cannabinoids in AB Red ([1]; 21-25° C., 420 days): 4.51 µg/mL
Stability of Cannabinoids in AB Red ([1]; 21-25° C., 450 days): 4.63 µg/mL
Stability of Cannabinoids in AB Red ([1]; 21-25° C., 480 days): 4.44 µg/mL
Stability of Cannabinoids in AB Red ([1]; 21-25° C., 510 days): 4.37 µg/mL
Stability of Cannabinoids in AB Red ([1]; 21-25° C., 540 days): 4.49 µg/mL
Stability of Cannabinoids in AB Red ([1]; 21-25° C., 570 days): 4.36 µg/mL
Stability in Powder Concentrate (content by LCMSMS) ([2]; day 0): 1.1 mg/g powder
Stability in Powder Concentrate (content by LCMSMS) ([2]; day 1): 1.07 mg/g powder
Stability in Powder Concentrate (content by LCMSMS) ([2]; day 2): 1.08 mg/g powder
Stability in Powder Concentrate (content by LCMSMS) ([2]; day 3): 1.09 mg/g powder
Stability in Powder Concentrate (content by LCMSMS) ([2]; day 5): 1.11 mg/g powder
Stability in Powder Concentrate (content by LCMSMS) ([2]; day 8): 1.07 mg/g powder
Stability in Powder Concentrate (content by LCMSMS) ([2]; day 9): 1.09 mg/g powder
Stability in Powder Concentrate (content by LCMSMS) ([2]; day 10): 1.08 mg/g powder
Stability in Powder Concentrate (content by LCMSMS) ([2]; day 11): 1.14 mg/g powder
Stability in Powder Concentrate (content by LCMSMS) ([2]; day 12): 1.10 mg/g powder
Stability in Powder Concentrate (content by LCMSMS) ([2]; day 15): 1.08 mg/g powder
Stability in Powder Concentrate (content by LCMSMS) ([2]; day 16): 1.06 mg/g powder
Stability in Powder Concentrate (content by LCMSMS) ([2]; day 17): 1.06 mg/g powder
Stability in Powder Concentrate (content by LCMSMS) ([2]; day 18): 1.13 mg/g powder
Stability in Powder Concentrate (content by LCMSMS) ([2]; day 19): 1.14 mg/g powder
Stability in Powder Concentrate (content by LCMSMS) ([2]; day 22): 1.12 mg/g powder
Stability in Powder Concentrate (content by LCMSMS) ([2]; day 23): 1.13 mg/g powder
Stability in Powder Concentrate (content by LCMSMS) ([2]; day 24): 1.09 mg/g powder
Stability in Powder Concentrate (content by LCMSMS) ([2]; day 25): 1.13 mg/g powder
Stability in Powder Concentrate (content by LCMSMS) ([2]; day 26): 1.14 mg/g powder
Stability in Powder Concentrate (content by LCMSMS) ([2]; day 29): 1.10 mg/g powder
Stability in Powder Concentrate (content by LCMSMS) ([2]; day 30): 1.07 mg/g powder
Stability in Powder Concentrate (content by LCMSMS) ([2]; day 60): 1.1 mg/g powder
Stability in Powder Concentrate (content by LCMSMS) ([2]; day 90): 1.13 mg/g powder
Stability in Powder Concentrate (content by LCMSMS) ([2]; day 120): 1.09 mg/g powder
Stability in Powder Concentrate (content by LCMSMS) ([2]; day 150): 1.11 mg/g powder
Stability in Powder Concentrate (content by LCMSMS) ([2]; day 180): 1.07 mg/g powder
Stability in Powder Concentrate (content by LCMSMS) ([2]; day 210): 1.06 mg/g powder
Stability in Powder Concentrate (content by LCMSMS) ([2]; day 240): 1.12 mg/g powder
Stability in Powder Concentrate (content by LCMSMS) ([2]; day 270): 1.15 mg/g powder
Stability in Powder Concentrate (content by LCMSMS) ([2]; day 300): 1.09 mg/g powder
Stability in Powder Concentrate (content by LCMSMS) ([2]; day 330): 1.10 mg/g powder
Stability in Powder Concentrate (content by LCMSMS) ([2]; day 360): 1.09 mg/g powder
Stability in Powder Concentrate (content by LCMSMS) ([2]; day 390): 1.14 mg/g powder
Stability in Powder Concentrate (content by LCMSMS) ([2]; day 420): 1.11 mg/g powder
Stability in Powder Concentrate (content by LCMSMS) ([2]; day 450): 1.06 mg/g powder
Stability in Powder Concentrate (content by LCMSMS) ([2]; day 480): 1.12 mg/g powder
Stability in Powder Concentrate (content by LCMSMS) ([2]; day 510): 1.07 mg/g powder
Stability in Powder Concentrate (content by LCMSMS) ([2]; day 540): 1.07 mg/g powder
Stability in Powder Concentrate (content by LCMSMS) ([2]; day 570): 1.06 mg/g powder
